Measured values reported in patent US9878015B2, “Pharmaceutical compositions and methods for the treatment of metastatic cancer” (IMMUNE SYSTEM KEY LTD., priority 2013, dated 2018).
Entries after “also recorded” stand apart in the source; their conditions may differ. Where no end group is shown, it is not given here.

What was measured:
[1] = system: tumor; conditions: adult Balb/C mice model; cited from earlier work
[2] = system: adenocarcinoma pancreatic cancer cells, cell line 1; assay: Radius cell migration assay, cell line 1; type: cell-based, human; conditions: cell line 1, Nerofe 10 μg/ml
Protocol: (§1) Cell Migration Assay of Human Cancer Cell
(§2) Human adenocarcinoma pancreatic cancer cells were grown until reaching 70-80% cell density in the flask and detached from the flask using Trypsin EDTA as described above. Cells suspended in medium and Trypsin were then centrifuged 10 minutes at 300 g (4° C.) and re-suspended in 2 ml fresh medium (as described for the BrdU incorporation assay above).
(§3) The cells were then fluidized and 3 ml medium were added such that the cells were suspended in a volume of 5 ml medium and subsequently counted and diluted to a concentration of 150,000 or 300,000 cells/ml medium.
(§4) Alternatively, Dulbecco's modification of Eagle's medium (DMEM, Biological Industries cat no. 01-055-1A) supplemented with 50 ml FBS (Biological industries cat no. 04-121-1A), 5 ml Hepes 1M (Biological industries cat no. 03-025-1C), 0.5 ml Amphotericin B 2500 μg/ml (Biological industries cat no. 03-029-1) and 5 ml Gentamycin sulfate 50 mg/ml (Biological industries cat no. 03-035-1) was used for cell culturing and re-suspension and the cells were re-suspended to a final concentration of 100,000 cells/ml medium.
(§5) A radius 96-well Cell Migration Assay plate (Cell Biolabs Inc. cat no. CBA-126) was prepared according to the manufacturer's protocol and each well was loaded with 100 μl cells such that each well contained 10,000, 15,000 or 30,000 cells. […]

[3] = system: human adenocarcinoma pancreatic cancer cells; assay: Cell migration assay after 48 hours pre-incubation with peptide; type: cell-based; conditions: 25 μg/ml peptide for 48 hours before assay; 27 hours vs 1 hour; FIG. 3, FIG. 4
Protocol: as §2, §4
Alternatively, the supernatant was discarded and replaced by 200 μl DMEM containing 2.5% 1-BS and the required treatment, namely control (without Nerofe), 10, 25 or 50 μg/ml Nerofe. The cells were then incubated at 37° C. for 48 hours in an incubator.
When the cells reached 70-80% density, the supernatant was discarded and the gel was removed from the center of the well, without affecting the attachment of cells as described in the manufacturer's protocol. […]

[4] = system: soluble ST2 (sST2) in human breast cancer cells (MDA-MB-231); assay: Soluble ST2 (sST2) ELISA assay, breast cancer cells; type: cell-based; conditions: MDA-MB-231, similar assay conditions, data not shown
Protocol: (§6) Soluble ST2 (sST2) ELISA Assay
(§7) Human adenocarcinoma pancreatic cancer cells and human breast cancer cells (MDA-MB-231) were grown until reaching 70-80% cell density in the flask and were detached from the flask using Trypsin EDTA as described above. Cells suspended in medium and Trypsin were then centrifuged and re-suspended in 2 ml fresh medium (as described for the BrdU incorporation assay above).
(§8) The cells were then fluidized and 3 ml medium were added to the cell suspension such that the cells were re-suspended in a total volume of 5 ml medium. The cells were then counted and diluted to a concentration of 50,000 cells/ml medium. Cells at 2 ml per plate were placed in each well of a 6 well plate such that each well contained 100,000 cells. The cells were incubated over-night in 37° C. in the incubator.
(§9) The supernatant was discarded and replaced by 1 ml RPMI medium containing 2.5% FBS. The cells were then incubated for 24 or 48 hours in 37° C. in the presence of the Nerofe peptide at the final concentrations of 1, 10, 25 and 50 μg/ml. […]
(§10) Detecting of sST2 was performed by diluted anti-sST2 Affinity purified antibody (Genmed, project ID 35622 B-Form) 1:100 in diluent (0.05% TW-20, 0.1% BSA in PBS), where 100 μl of the detection antibody was loaded on each well. […] Plate absorbance was performed in a microplate reader at O.D. of 450/590 nm.

[5] = system: adenocarcinoma pancreatic cancer cells, cell line 2; assay: Radius cell migration assay, cell line 2; type: cell-based, human; conditions: cell line 2, Nerofe 10 μg/ml
Protocol: as §1, §2, §3, §4, §5

[6] = system: vascular endothelial growth factor (VEGF); assay: Clinical study: serum level of VEGF in cancer patients (ELISA); type: in vivo, human
Protocol: Therefore a clinical study that follows the serum levels of VEGF was conducted in cancer patients that were administered with the peptide Nerofe. Patients participating in the study were diagnosed with various cancer types, namely colon, colorectal, spindle cell neoplasm, pancreas, small intestine, non small cell lung carcinoma, hepatic carcinoma, colon adenocarcinoma and rectal adenocarcinoma, as summarized in Table 3 below.
Patients were included in at least one of Cohort 1, Cohort 2, Cohort 3 and Cohort 4 and received doses of […] (about 0.16, 0.32, 0.64 or 1.28 mg/kg body weight) of the peptide Nerofe, respectively, at the indicated time points.
Serum levels of VEGF were measured in blood samples obtained form these patients using an Elisa kit for human VEFG (R&D systems) and the results are presented in FIG. 5 (for the patients of Cohort 1 and Cohort 2) and in FIG. 6 (for the patients of Cohort 3 and Cohort 4).

[7] = system: tissue plasminogen activator (TPA) secreted by human adenocarcinoma pancreatic cancer cells; assay: Tissue type plasminogen activator (TPA) human ELISA assay on cell supernatant; type: cell-based; conditions: 1-50 μg/ml peptide, 24 hours; cell line 1, 2 and 3; FIG. 1
Protocol: Tissue Type Plasminogen Activator (TPA) Human ELISA Assay
as §7, with “cells” for “cells and human breast cancer cells (MDA-MB-231)”, “70-80%” for “70-80% cell”, “assay,” for “assay”
The cells were then fluidized and 3 ml medium were added to the cell suspension such that the cells were re-suspended in a total volume of 5 ml medium. Cells were counted and diluted to a concentration of 50,000 cells/ml medium. Next, the cells were placed in each well of a 6 well plate (Nunc cat no. 140675), by placing 2 ml cells culture per well such that each well contains 100,000 cells. The cells were next incubated over-night at 37° C. in the incubator.
The supernatant was discarded and replaced by 1 ml RPMI medium containing 2.5% FBS. Cells were then incubated for 24 hours or 48 hours at 37° C. in the presence of the Nerofe peptide at the final concentrations of 1, 10, 25 and 50 μg/ml. […]
Next, a TPA ELISA assay was performed as follows: the supernatant was thawed and kept on ice, then diluted 1:15 with the TPA diluents provided with the kit (x1N, Abcam cat no. ab108914). The procedure was continued according to the manufacturer's protocol and ELISA plates were read at an optical density (O.D.) of 450/590.

[8] = system: soluble ST2 (sST2) secreted by human adenocarcinoma pancreatic cancer cells; assay: Soluble ST2 (sST2) ELISA assay, pancreatic cancer cells; type: cell-based; conditions: 1-50 μg/ml peptide; all tested cells; FIG. 2
Protocol: as §6, §7, §8, §9, §10

[9] = system: human adenocarcinoma pancreatic cancer cells; assay: Bromodeoxyuridine (BrdU) incorporation assay (cell proliferation); type: cell-based; conditions: 1, 10, 25 and 50 μg/ml peptide vs control; no correlation with concentration
Protocol: Bromodeoxyuridine (BrdU) Incorporation Assay
Human adenocarcinoma pancreatic cancer cells and human breast cancer cells were grown until reaching 70-80% density in the flask and detached from the flask using Trypsin EDTA as described above (the above protocol for cell culturing was used until the step of adding 10 ml medium to the Trypsin-treated cells). The cells suspended in medium and Trypsin were then transferred into a 50 ml conical tube and centrifuged at 300 g (10 min, 4° C.). The supernatant was then discarded and the cell pellet was re-suspended in fresh medium (2 ml medium prepared as described above).
The cells were then fluidized and additional 3 ml medium were added to the cell suspension such that the cells were re-suspended in a total volume of 5 ml medium. The cells were then counted and diluted to a concentration of 20,000 cells/ml medium. Next, the cells were placed in a 96 well plate (Nunc cat no. 167008), placing 100 μl cell suspension per well, such that each well contained 2000 cells. The cells were then incubated over-night in 37° C. in the incubator.
The concentrated Nerofe peptide was suspended in a total volume of 100 μl medium and added to the assayed cells in the 96-well plate to a final concentration of 1, 10, 25 and 50 μg/ml. Control (background) assays were performed in the absence of the peptide, namely, 100 μl medium was added to control cells. […]

[10] = system: various cancer cells of hematopoietic origin; conditions: inhibitory effect defined as at least 40% inhibition vs control; cited from earlier work

Row | Sequence | tumor size [1] | % inhibition of migration ([2]; 8 hours) [%] | % Migration after 8 hours ([2]; control = 100) [%] | migration of cells into cell-free area [3] | decrease in the level of sST2 [4] | % inhibition of migration ([5]; 8 hours) [%] | % Migration after 8 hours ([5]; control = 100) [%] | change of serum level of VEGF ([6]; cancer patients, Cohort 1 and Cohort 2, 6 or 12 mg/m^2, FIG. 5) | decrease of serum level of VEGF ([6]; cancer patients, Cohort 3 and Cohort 4, 24 or 48 mg/m^2, FIG. 6) | decrease of serum level of VEGF in single patients ([6]; patients 13 (small intestine) and 19 (rectal adenocarcinoma)) | level of secreted TPA compared to control cells [7] | level of sST2 compared to cells not incubated with the peptide [8] | inhibition of BrdU incorporation [9] | cell proliferation [10]
1 | LHLWLSGEPVQSSGTKDMRSKSDSKRVSDKQLISKAVWWTFFLPSTLWERK (isolated synthetic peptide (fragment of T 101 peptide)) [T101 peptide, Full length thymus peptide, devoid of its N-terminal 33 amino acids; 51 amino acids long] | significantly reduce tumor size |  |  |  |  |  |  |  |  |  |  |  |  | 
2 | WWTFFLPSTLWERK [Nerofe, C-terminal 14 all D amino acid fragment of the full T101 peptide, …] |  | 30 | 70 | substantially inhibited | about 80% | 82 | 18 | increase | 30-40% | particularly significant | lower levels of secreted TPA | lower levels of sST2; also recorded: dose-dependent | up to 26% | inhibit cell proliferation
